Measured values from patent publication US9062124B2, “GIP-based mixed agonists for treatment of metabolic disorders and obesity” (priority 2008, dated 2015).
Where no end group is shown, it is not given here. [ ]: non-standard residue; d: D form. PEG 40 kDa = PEG (40 kDa) covalently attached to Cys; C14 acyl = 14 carbon fatty acyl group; Aib = CC(C)(N)C(=O)O

Tests used:
[1] = Food intake of mice after peptide injection; format: in vivo; conditions: for total food intake: versus vehicle control
[2] = Blood glucose levels of mice after peptide injection
[3] = test system: glucagon receptor, GLP-1 receptor or GIP receptor; assay: Agonist profile across receptors assigned from the cAMP reporter assay data; format: cell-based; conditions: assigned from the in vitro EC50 data of Tables 1-4
[4] = target: T1, GIP receptor (Homo sapiens, UniProt P48546); assay: cAMP synthesis functional assay (firefly luciferase reporter in HEK293 cells), GIP receptor; format: cell-based
T1 construct: expressed in transfected cells; host or cells: HEK293
T1 sequence (P48546 22-466): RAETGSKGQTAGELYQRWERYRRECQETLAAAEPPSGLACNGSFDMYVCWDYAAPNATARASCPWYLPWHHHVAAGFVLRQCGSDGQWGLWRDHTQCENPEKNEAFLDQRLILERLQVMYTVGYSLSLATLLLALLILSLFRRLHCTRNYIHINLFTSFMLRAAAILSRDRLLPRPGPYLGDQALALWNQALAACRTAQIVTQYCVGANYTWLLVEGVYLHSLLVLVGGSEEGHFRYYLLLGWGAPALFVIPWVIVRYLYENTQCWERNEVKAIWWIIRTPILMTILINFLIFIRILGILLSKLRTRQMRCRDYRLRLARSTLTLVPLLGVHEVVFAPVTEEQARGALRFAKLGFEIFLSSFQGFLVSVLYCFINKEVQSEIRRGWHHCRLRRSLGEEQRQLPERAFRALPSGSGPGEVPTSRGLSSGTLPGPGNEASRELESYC

[5] = Body weight of mice after peptide injection
[6] = Glucose tolerance test (1-hour and 24-hour GTT) in DIO mice; format: in vivo; conditions: Example 26
Description: A 1-hour glucose tolerance test (GTT) was performed on the mice by intraperitoneally injecting a 25% (w/v) glucose saline solution into the mice one hour after injection with one of the peptides or vehicle control. The glucose saline solution was administered to the mice at a dose of 1.5 g per kg of mouse body weight. Blood glucose levels were measured at the time of injection of peptide or vehicle control (−60 min), at the time of glucose saline solution injection (0 min), or at 15, 30, 60, or 120 min post injection with the glucose saline solution.
A 24-hour GTT also was performed on the mice in the same manner as the 1-hour GTT, except that the glucose saline solution was administered to the mice 24 hours after injection with the peptide or vehicle control. The results of the 24-hour GTT are showri in FIG. 8.

[7] = target: T2, glucagon receptor (Homo sapiens, UniProt P47871); assay: cAMP synthesis functional assay (firefly luciferase reporter in HEK293 cells), glucagon receptor; format: cell-based; conditions: relative to the standard (Std.) EC50 of the same run
T2 construct: expressed in transfected cells; host or cells: HEK293

[8] = target: T3, GLP-1 receptor (Homo sapiens, UniProt P43220); assay: cAMP synthesis functional assay (firefly luciferase reporter in HEK293 cells), GLP-1 receptor; format: cell-based
T3 construct: expressed in transfected cells; host or cells: HEK293

[9] = Example 34, DIO mice, 10 or 35 nmol/kg
[10] = Example 28, DIO mice, subcutaneous, 10 nmol/kg, Day 0 versus Day 7
[11] = Example 34, DIO mice, higher dose (35 nmol/kg), Day 0 versus Day 7
[12] = Example 29, mice, QD for 7 days, 25 nmol/kg
[13] = Example 20, DIO mice, subcutaneous QW, 70 or 210 nmol/kg/week
[14] = Example 27, mice, subcutaneous, 10 or 35 nmol/kg/week, Day 7
[15] = relative to the standard (Std.) EC50 of the same run

T3 sequence (P43220 24-463, species assumed): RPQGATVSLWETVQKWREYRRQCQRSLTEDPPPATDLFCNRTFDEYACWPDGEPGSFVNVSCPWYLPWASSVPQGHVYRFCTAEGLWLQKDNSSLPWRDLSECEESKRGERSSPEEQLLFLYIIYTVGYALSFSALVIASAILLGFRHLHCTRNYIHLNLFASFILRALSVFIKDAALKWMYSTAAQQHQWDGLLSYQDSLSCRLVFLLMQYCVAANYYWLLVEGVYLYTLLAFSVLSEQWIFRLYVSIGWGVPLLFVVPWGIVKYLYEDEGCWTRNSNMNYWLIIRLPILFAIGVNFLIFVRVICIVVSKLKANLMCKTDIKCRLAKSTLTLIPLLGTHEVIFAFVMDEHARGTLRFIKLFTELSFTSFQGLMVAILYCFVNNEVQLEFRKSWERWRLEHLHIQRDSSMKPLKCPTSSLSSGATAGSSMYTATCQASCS
T2 sequence (P47871 26-477): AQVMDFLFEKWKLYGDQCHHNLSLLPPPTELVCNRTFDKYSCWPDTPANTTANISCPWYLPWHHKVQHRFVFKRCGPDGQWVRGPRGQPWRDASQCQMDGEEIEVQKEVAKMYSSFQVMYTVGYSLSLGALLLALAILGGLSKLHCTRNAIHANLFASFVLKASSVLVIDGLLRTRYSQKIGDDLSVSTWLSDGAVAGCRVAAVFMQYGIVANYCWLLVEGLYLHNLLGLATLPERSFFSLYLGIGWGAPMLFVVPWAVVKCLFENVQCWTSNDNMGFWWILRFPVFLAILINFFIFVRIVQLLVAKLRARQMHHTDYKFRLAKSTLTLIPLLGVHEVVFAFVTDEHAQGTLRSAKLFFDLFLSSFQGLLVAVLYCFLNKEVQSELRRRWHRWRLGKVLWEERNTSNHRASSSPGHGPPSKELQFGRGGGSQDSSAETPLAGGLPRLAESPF

mt-311: non-acylated version of mt-298; PEG on Cys at position 24, C-terminal Lys (Y[Aib]EGTFTSDYSIYLDKQAA[Aib]EFVC(PEG 40 kDa)WLLAGGPSSGAPPPSK-NH2)
total food intake [1, 9]: decreased, as compared to the mice injected with a vehicle control | blood glucose levels [2, 10]: decreased | blood glucose levels [2, 11]: decreased upon administration of the higher dose

mt-331: same amino acid sequence as mt-311, differing in the pegylation linker; no acyl group on Lys at position 40 (Y[Aib]EGTFTSDYSIYLDKQAA[Aib]EFVC(PEG 40 kDa)WLLAGGPSSGAPPPSK-NH2; also: PEG linker structure not shown)
total food intake [1, 9]: decreased, as compared to the mice injected with a vehicle control | total food intake ([1]; Example 35, 3 or 10 nmol/kg): decreased in comparison to mice administered the vehicle control | blood glucose levels [2, 11]: decreased upon administration of the higher dose

CCCCCCCCCCCCCCCCCC(=O)NCCCC[C@H](NC(=O)[C@H](CO)NC(=O)[C@@H]1CCCN1C(=O)[C@@H]1CCCN1C(=O)[C@@H]1CCCN1C(=O)[C@H](C)NC(=O)CNC(=O)[C@H](CO)NC(=O)[C@H](CO)NC(=O)[C@@H]1CCCN1C(=O)CNC(=O)CNC(=O)[C@H](C)NC(=O)[C@H](CC(C)C)NC(=O)[C@H](CC(C)C)NC(=O)[C@H](Cc1c[nH]c2ccccc12)NC(=O)[C@H](CC(N)=O)NC(=O)[C@@H](NC(=O)[C@H](Cc1ccccc1)NC(=O)[C@H](CCC(=O)O)NC(=O)C(C)(C)NC(=O)[C@H](C)NC(=O)[C@H](C)NC(=O)[C@H](CCC(N)=O)NC(=O)[C@H](CCCCN)NC(=O)[C@H](CC(=O)O)NC(=O)[C@H](CC(C)C)NC(=O)[C@H](Cc1ccc(O)cc1)NC(=O)[C@@H](NC(=O)[C@H](CO)NC(=O)[C@H](Cc1ccc(O)cc1)NC(=O)[C@H](CC(=O)O)NC(=O)[C@H](CO)NC(=O)[C@@H](NC(=O)[C@H](Cc1ccccc1)NC(=O)[C@@H](NC(=O)CNC(=O)[C@H](CCC(=O)O)NC(=O)C(C)(C)NC(=O)[C@@H](N)Cc1ccc(O)cc1)[C@@H](C)O)[C@@H](C)O)[C@@H](C)CC)C(C)C)C(N)=O [mt-262]
receptor activity profile (glucagon / GLP-1 / GIP agonism) [3]: exhibited activity at the GIP, GLP-1, and glucagon receptors | decrease in blood glucose levels [2, 12]: ~50%

CC[C@H](C)[C@H](NC(=O)[C@H](CO)NC(=O)[C@H](Cc1ccc(O)cc1)NC(=O)[C@H](CC(=O)O)NC(=O)[C@H](CO)NC(=O)[C@@H](NC(=O)[C@H](Cc1ccccc1)NC(=O)[C@@H](NC(=O)CNC(=O)[C@H](CCC(=O)O)NC(=O)C(C)(C)NC(=O)[C@@H](N)Cc1ccc(O)cc1)[C@@H](C)O)[C@@H](C)O)C(=O)N[C@@H](Cc1ccc(O)cc1)C(=O)N[C@@H](CC(C)C)C(=O)N[C@@H](CC(=O)O)C(=O)N[C@@H](CCCCN)C(=O)N[C@@H](CCC(N)=O)C(=O)N[C@@H](C)C(=O)N[C@@H](C)C(=O)NC(C)(C)C(=O)N[C@@H](CCC(=O)O)C(=O)N[C@@H](Cc1ccccc1)C(=O)N[C@H](C(=O)N[C@@H](CC(N)=O)C(=O)N[C@@H](Cc1c[nH]c2ccccc12)C(=O)N[C@@H](CC(C)C)C(=O)N[C@@H](CC(C)C)C(=O)N[C@@H](C)C(=O)NCC(=O)NCC(=O)N1CCC[C@H]1C(=O)N[C@@H](CO)C(=O)N[C@@H](CO)C(=O)NCC(=O)N[C@@H](C)C(=O)N1CCC[C@H]1C(=O)N1CCC[C@H]1C(=O)N1CCC[C@H]1C(=O)N[C@@H](CO)C(=O)N[C@@H](CCCCN)C(N)=O)C(C)C [mt-263]
EC50 ([4]; GIP Receptor EC50, cAMP luciferase reporter assay as in Example 16): 3.1 pM | decrease in blood glucose levels ([2]; Example 30, 10 nmol/kg dose, Day 7 compared to Day 0): ~-80 mg/dL

Pro3 C24 GIP NH2 (1-42) 40K PEG: amino acids 1-42 of GIP with Pro at position 3, Cys at position 24 attached to 40K PEG, C-terminal amide (YAPGTFISDYSIAMDKIHQQDFVC(PEG 40 kDa)WLLAQKGKKNDWKHNITQ-NH2) [reference compound]
reduction of cumulative food intake [1, 13]: neither the GIP antagonist nor the GIP agonist peptide were effective | reduction of body weight ([5]; Example 20, DIO mice, subcutaneous QW, 70 or 210 nmol/kg/week, compared with pegylated glucagon/GLP-1 co-agonist): neither the GIP antagonist nor the GIP agonist peptide were effective | reduction of blood glucose levels [2, 13]: neither the GIP antagonist nor the GIP agonist peptide were effective

mt-309: acylated version of mt-274: C-terminal Lys with C14 fatty acyl group, 40 kDa PEG on Cys at position 24 (Y[Aib]EGTFTSDYSIYLDKQAA[Aib]EFVC(PEG 40 kDa)WLLAGGPSSGAPPPSK(C14 acyl)-NH2)
total change in body weight (%), effect of dosing frequency ([5]; Example 37, DIO mice, subcutaneous QD 5 nmol/kg, every 2nd day 10 nmol/kg or QW 30 nmol/kg, Day 6): approximately the same as the total change in body weight for mice injected QD | decrease in blood glucose levels, effect of dosing frequency ([2]; Example 37, DIO mice, QD 5, every 2nd day 10 or QW 30 nmol/kg, Day 6): a QW injection of mt-309 achieved the same decrease in blood glucose levels as a QD injection

mt-353: same sequence as mt-331 with a C14 fatty acyl group on the Lys at position 40 (Y[Aib]EGTFTSDYSIYLDKQAA[Aib]EFVC(PEG 40 kDa)WLLAGGPSSGAPPPSK(C14 acyl)-NH2)
total food intake ([1]; Example 35, 3 or 10 nmol/kg): decreased in comparison to mice administered the vehicle control | blood glucose levels ([2]; Example 35, C57Bl/6 mice on diabetogenic diet): additionally caused blood glucose levels to decrease

mt-274: pegylated, linear peptide lacking a lactam, Glu at position 3, PEG on C-terminal Cys at position 40 (Y[Aib]EGTFTSDYSIYLDKQAA[Aib]EFVNWLLAGGPSSGAPPPSC(PEG 40 kDa)-NH2)
potency in GTT compared with GLP-1 agonist control peptide ([6]; 1 or 3 nmol/kg/week versus control at 10 nmol/kg/week): appeared to have the highest potency | blood glucose levels in 1-hour and 24-hour GTT ([6]; DIO mice, intraperitoneal, 1, 3 or 10 nmol/kg/week, versus vehicle control): exhibited decreased levels of blood glucose | % change in body weight ([5]; Example 26, DIO mice, intraperitoneal, 3 or 10 nmol/kg/week, up to Day 7): lost weight to the same or greater extent of mice injected with the GLP-agonist control peptide | total change in body weight [5, 14]: most dramatic changes in body weight | total change in blood glucose [2, 14]: most dramatic changes in blood glucose | blood glucose levels [2, 10]: decreased

CCCCCCCCCCCCCC(=O)NCCCC[C@H](NC(=O)[C@H](CO)NC(=O)[C@@H]1CCCN1C(=O)[C@@H]1CCCN1C(=O)[C@@H]1CCCN1C(=O)[C@H](C)NC(=O)CNC(=O)[C@H](CO)NC(=O)[C@H](CO)NC(=O)[C@@H]1CCCN1C(=O)CNC(=O)CNC(=O)[C@H](C)NC(=O)[C@H](CC(C)C)NC(=O)[C@H](CC(C)C)NC(=O)[C@H](Cc1c[nH]c2ccccc12)NC(=O)[C@H](CC(N)=O)NC(=O)[C@@H](NC(=O)[C@H](Cc1ccccc1)NC(=O)[C@H](CCC(=O)O)NC(=O)C(C)(C)NC(=O)[C@H](C)NC(=O)[C@H](C)NC(=O)[C@H](CCC(N)=O)NC(=O)[C@H](CCCCN)NC(=O)[C@H](CC(=O)O)NC(=O)[C@H](CC(C)C)NC(=O)[C@H](Cc1ccc(O)cc1)NC(=O)[C@@H](NC(=O)[C@H](CO)NC(=O)[C@H](Cc1ccc(O)cc1)NC(=O)[C@H](CC(=O)O)NC(=O)[C@H](CO)NC(=O)[C@@H](NC(=O)[C@H](Cc1ccccc1)NC(=O)[C@@H](NC(=O)CNC(=O)[C@H](CCC(=O)O)NC(=O)C(C)(C)NC(=O)[C@@H](N)Cc1ccc(O)cc1)[C@@H](C)O)[C@@H](C)O)[C@@H](C)CC)C(C)C)C(N)=O [mt-260]
Glucagon Receptor relative activity [7]: 6.64% | EC50 ([8]; GLP-1 Receptor EC50, cAMP luciferase reporter assay as in Example 16): 6.8 pM | GLP-1 Receptor relative activity [8, 15]: 257.35% | GIP Receptor relative activity [4, 15]: 583.33% | receptor activity profile (glucagon / GLP-1 / GIP agonism) [3]: exhibited activity at the GIP, GLP-1, and glucagon receptors | decrease in blood glucose levels [2, 12]: ~50%
